Reference: ChEMBL document CHEMBL1201862, “PubChem BioAssay data set” (2004)
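The compound was tested at five concentrations on cells cultured in 96-well plates, with a 48-hour exposure period. Here, GI50 denotes the concentration required for 50% inhibition of growth.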 Activity calls are given as the source filed them. No stated cut-off is given here; in the data, active = GI50 up to about 1.1 µM and inactive = higher.

Experiments:
Experiment in all cases: NCI tumour cell line growth inhibition, 48 h
786-0 = tested on: 786-0
A498 = tested on: A498
A549 = tested on: A549
ACHN = tested on: ACHN
CAKI-1 = tested on: CAKI-1
CCRF-CEM = tested on: CCRF-CEM
COLO 205 = tested on: COLO 205
DLD-1 = tested on: DLD-1
DMS-114 = tested on: DMS-114
DMS-273 = tested on: DMS-273
EKVX = tested on: EKVX
HCC 2998 = tested on: HCC 2998
HCT-116 = tested on: HCT-116
HL-60 = tested on: HL-60
HOP-18 = tested on: HOP-18
HOP-62 = tested on: HOP-62
IGROV-1 = tested on: IGROV-1
K562 = tested on: K562
KM-20L2 = tested on: KM-20L2
KM12 = tested on: KM12
LOX IMVI = tested on: LOX IMVI
LXFL 529 = tested on: LXFL 529
M14 = tested on: M14
M19-MEL = tested on: M19-MEL
MOLT-4 = tested on: MOLT-4
Malme-3M = tested on: Malme-3M
NCI-H226 = tested on: NCI-H226
NCI-H23 = tested on: NCI-H23
NCI-H460 = tested on: NCI-H460
NCI-H522 = tested on: NCI-H522
OVCAR-3 = tested on: OVCAR-3
OVCAR-4 = tested on: OVCAR-4
OVCAR-5 = tested on: OVCAR-5
OVCAR-8 = tested on: OVCAR-8
RPMI-8226 = tested on: RPMI-8226
RXF 393 = tested on: RXF 393
RXF 631 = tested on: RXF 631
SF-268 = tested on: SF-268
SF-295 = tested on: SF-295
SF-539 = tested on: SF-539
SK-MEL-28 = tested on: SK-MEL-28
SK-MEL-2 = tested on: SK-MEL-2
SK-MEL-5 = tested on: SK-MEL-5
SK-OV-3 = tested on: SK-OV-3
SN12C = tested on: SN12C
SNB-19 = tested on: SNB-19
SNB-75 = tested on: SNB-75
SNB-78 = tested on: SNB-78
SW-620 = tested on: SW-620
TK-10 = tested on: TK-10
U-251 = tested on: U-251
UACC-257 = tested on: UACC-257
UACC-62 = tested on: UACC-62
UO-31 = tested on: UO-31
XF498 = tested on: XF498
HCT-15 = tested on: HCT-15
HT-29 = tested on: HT-29
SR = tested on: SR
HOP-92 = tested on: HOP-92

CC(=O)Nc1ccc(/C=c2\sc3nnc(/C=C/c4ccccc4)n3c2=O)cc1
GI50 (786-0): > 50 µM (inactive)
GI50 (A498): > 50 µM (inactive)
GI50 (A549): > 50 µM (inactive)
GI50 (ACHN): > 50 µM (inactive)
GI50 (CAKI-1): > 50 µM (inactive)
GI50 (CCRF-CEM): > 50 µM (inactive)
GI50 (COLO 205): > 50 µM (inactive)
GI50 (DLD-1): > 50 µM (inactive)
GI50 (DMS-114): > 50 µM (inactive)
GI50 (DMS-273): > 50 µM (inactive)
GI50 (EKVX): > 50 µM (inactive)
GI50 (HCC 2998): > 50 µM (inactive)
GI50 (HCT-116): > 50 µM (inactive)
GI50 (HL-60): > 50 µM (inactive)
GI50 (HOP-18): 17.1 µM (inactive)
GI50 (HOP-62): > 50 µM (inactive)
GI50 (IGROV-1): > 50 µM (inactive)
GI50 (K562): > 50 µM (inactive)
GI50 (KM-20L2): > 50 µM (inactive)
GI50 (KM12): > 50 µM (inactive)
GI50 (LOX IMVI): > 50 µM (inactive)
GI50 (LXFL 529): > 50 µM (inactive)
GI50 (M14): > 50 µM (inactive)
GI50 (M19-MEL): > 50 µM (inactive)
GI50 (MOLT-4): > 50 µM (inactive)
GI50 (Malme-3M): > 50 µM (inactive)
GI50 (NCI-H226): > 50 µM (inactive)
GI50 (NCI-H23): > 50 µM (inactive)
GI50 (NCI-H460): > 50 µM (inactive)
GI50 (NCI-H522): > 50 µM (inactive)
GI50 (OVCAR-3): > 50 µM (inactive)
GI50 (OVCAR-4): > 50 µM (inactive)
GI50 (OVCAR-5): > 50 µM (inactive)
GI50 (OVCAR-8): > 50 µM (inactive)
GI50 (RPMI-8226): > 50 µM (inactive)
GI50 (RXF 393): > 50 µM (inactive)
GI50 (RXF 631): > 50 µM (inactive)
GI50 (SF-268): > 50 µM (inactive)
GI50 (SF-295): > 50 µM (inactive)
GI50 (SF-539): > 50 µM (inactive)
GI50 (SK-MEL-28): > 50 µM (inactive)
GI50 (SK-MEL-2): > 50 µM (inactive)
GI50 (SK-MEL-5): > 50 µM (inactive)
GI50 (SK-OV-3): > 50 µM (inactive)
GI50 (SN12C): > 50 µM (inactive)
GI50 (SNB-19): > 50 µM (inactive)
GI50 (SNB-75): > 50 µM (inactive)
GI50 (SNB-78): > 50 µM (inactive)
GI50 (SW-620): > 50 µM (inactive)
GI50 (TK-10): > 50 µM (inactive)
GI50 (U-251): > 50 µM (inactive)
GI50 (UACC-257): > 50 µM (inactive)
GI50 (UACC-62): > 50 µM (inactive)
GI50 (UO-31): > 50 µM (inactive)
GI50 (XF498): > 50 µM (inactive)

Cc1cccc(NC(=O)C(=O)C(C2OC(=O)c3ccccc32)[N+](=O)[O-])c1C (centres undefined)
GI50 (786-0): 10.2 µM (inactive)
GI50 (A498): 15.7 µM (inactive)
GI50 (A549): 18.3 µM (inactive)
GI50 (ACHN): 10.9 µM (inactive)
GI50 (CAKI-1): 7.43 µM (inactive)
GI50 (CCRF-CEM): 3.52 µM (inactive)
GI50 (COLO 205): 15.4 µM (inactive)
GI50 (DLD-1): 6.43 µM (inactive)
GI50 (DMS-114): 2.86 µM (inactive)
GI50 (DMS-273): 2.59 µM (inactive)
GI50 (EKVX): 17.6 µM (inactive)
GI50 (HCC 2998): 13.8 µM (inactive)
GI50 (HCT-116): 5.96 µM (inactive)
GI50 (HCT-15): 5.21 µM
GI50 (HL-60): 2.37 µM (inactive)
GI50 (HOP-18): 10.5 µM (inactive)
GI50 (HOP-62): 17.2 µM (inactive)
GI50 (HT-29): 16.7 µM (inactive)
GI50 (IGROV-1): 9.82 µM (inactive)
GI50 (K562): 4.42 µM (inactive)
GI50 (KM-20L2): 18.4 µM (inactive)
GI50 (KM12): 12.8 µM (inactive)
GI50 (LOX IMVI): 2.4 µM (inactive)
GI50 (LXFL 529): 8.04 µM (inactive)
GI50 (M14): 13.8 µM (inactive)
GI50 (M19-MEL): 1.87 µM (inactive)
GI50 (MOLT-4): 2.99 µM (inactive)
GI50 (Malme-3M): 3.79 µM (inactive)
GI50 (NCI-H226): 12.6 µM (inactive)
GI50 (NCI-H23): 5.46 µM (inactive)
GI50 (NCI-H460): 6 µM (inactive)
GI50 (NCI-H522): 2 µM (inactive)
GI50 (OVCAR-3): 2.08 µM (inactive)
GI50 (OVCAR-4): 8.11 µM (inactive)
GI50 (OVCAR-5): 19.1 µM (inactive)
GI50 (OVCAR-8): 13.2 µM (inactive)
GI50 (RXF 393): 6.87 µM (inactive)
GI50 (RXF 631): 5.98 µM (inactive)
GI50 (SF-268): 7.52 µM (inactive)
GI50 (SF-295): 14.9 µM (inactive)
GI50 (SF-539): 18.9 µM (inactive)
GI50 (SK-MEL-28): 12.6 µM (inactive)
GI50 (SK-MEL-2): 5.06 µM (inactive)
GI50 (SK-MEL-5): 6.53 µM (inactive)
GI50 (SK-OV-3): 13.6 µM (inactive)
GI50 (SN12C): 6.34 µM (inactive)
GI50 (SNB-19): 16.2 µM (inactive)
GI50 (SNB-75): 5.51 µM (inactive)
GI50 (SNB-78): 17.5 µM (inactive)
GI50 (SR): 3.13 µM (inactive)
GI50 (SW-620): 5.57 µM (inactive)
GI50 (TK-10): 18 µM (inactive)
GI50 (U-251): 3.64 µM (inactive)
GI50 (UACC-257): 5.61 µM (inactive)
GI50 (UACC-62): 10.9 µM (inactive)
GI50 (UO-31): 9.53 µM (inactive)
GI50 (XF498): 6.81 µM (inactive)

NNC(=O)/C(=C/c1cccc([N+](=O)[O-])c1)NC(=O)c1ccccc1
GI50 (786-0): > 100 µM (inactive)
GI50 (A498): > 100 µM (inactive)
GI50 (A549): > 100 µM (inactive)
GI50 (ACHN): > 100 µM (inactive)
GI50 (CAKI-1): > 100 µM (inactive)
GI50 (CCRF-CEM): > 100 µM (inactive)
GI50 (COLO 205): > 100 µM (inactive)
GI50 (DLD-1): > 100 µM (inactive)
GI50 (DMS-114): > 100 µM (inactive)
GI50 (DMS-273): > 100 µM (inactive)
GI50 (EKVX): < 0.01 µM (active)
GI50 (HCC 2998): > 100 µM (inactive)
GI50 (HCT-116): > 100 µM (inactive)
GI50 (HCT-15): > 100 µM
GI50 (HL-60): > 100 µM (inactive)
GI50 (HOP-18): > 100 µM (inactive)
GI50 (HOP-62): > 100 µM (inactive)
GI50 (HOP-92): > 100 µM (inactive)
GI50 (HT-29): > 100 µM (inactive)
GI50 (IGROV-1): > 100 µM (inactive)
GI50 (K562): > 100 µM (inactive)
GI50 (KM12): > 100 µM (inactive)
GI50 (LOX IMVI): > 100 µM (inactive)
GI50 (LXFL 529): > 100 µM (inactive)
GI50 (M14): > 100 µM (inactive)
GI50 (M19-MEL): > 100 µM (inactive)
GI50 (MOLT-4): > 100 µM (inactive)
GI50 (Malme-3M): > 100 µM (inactive)
GI50 (NCI-H226): > 100 µM (inactive)
GI50 (NCI-H23): > 100 µM (inactive)
GI50 (NCI-H460): > 100 µM (inactive)
GI50 (NCI-H522): > 100 µM (inactive)
GI50 (OVCAR-3): > 100 µM (inactive)
GI50 (OVCAR-4): > 100 µM (inactive)
GI50 (OVCAR-5): 77.3 µM (inactive)
GI50 (OVCAR-8): > 100 µM (inactive)
GI50 (RPMI-8226): > 100 µM (inactive)
GI50 (RXF 393): > 100 µM (inactive)
GI50 (RXF 631): > 100 µM (inactive)
GI50 (SF-268): > 100 µM (inactive)
GI50 (SF-295): > 100 µM (inactive)
GI50 (SF-539): > 100 µM (inactive)
GI50 (SK-MEL-28): > 100 µM (inactive)
GI50 (SK-MEL-2): > 100 µM (inactive)
GI50 (SK-MEL-5): > 100 µM (inactive)
GI50 (SK-OV-3): > 100 µM (inactive)
GI50 (SN12C): > 100 µM (inactive)
GI50 (SNB-19): > 100 µM (inactive)
GI50 (SNB-75): > 100 µM (inactive)
GI50 (SNB-78): > 100 µM (inactive)
GI50 (SR): > 100 µM (inactive)
GI50 (SW-620): > 100 µM (inactive)
GI50 (TK-10): > 100 µM (inactive)
GI50 (U-251): > 100 µM (inactive)
GI50 (UACC-257): > 100 µM (inactive)
GI50 (UO-31): > 100 µM (inactive)
GI50 (XF498): > 100 µM (inactive)
